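Test compounds were applied to cells in 96-well plates for 48 hours at 5 doses. GI50 marks 50% less growth.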 Calls of active or inactive are those of the source. Cut-off read from the data, not from the text of the source: active = GI50 up to about 1.1 µM and inactive = higher.
Key:
Assay in all cases: NCI-60 cell line screen, 48 h
[1] = test system: KM12
[2] = test system: SNB-78
[3] = test system: NCI-H226
[4] = test system: RXF 393
[5] = test system: XF498
[6] = test system: CAKI-1
[7] = test system: MOLT-4
[8] = test system: RPMI-8226
[9] = test system: K562
[10] = test system: DMS-114
[11] = test system: SR
[12] = test system: SNB-19
[13] = test system: HCC 2998
[14] = test system: HOP-18
[15] = test system: TK-10
[16] = test system: SW-620
[17] = test system: HT-29
[18] = test system: OVCAR-4
[19] = test system: Malme-3M
[20] = test system: M14
[21] = test system: UO-31
[22] = test system: SF-539
[23] = test system: SK-MEL-5
[24] = test system: LXFL 529
[25] = test system: HCT-15
[26] = test system: SK-MEL-28
[27] = test system: OVCAR-3
[28] = test system: HOP-92
[29] = test system: DLD-1
[30] = test system: U-251
[31] = test system: M19-MEL

## O=C(OC/C=C1C=C(OC(=O)c2ccccc2)/C(=N/N(C(=O)c2ccccc2)c2ccccc2)O\1)c1ccccc1
[1]
  GI50: < 10 nM (active)
[2]
  GI50: 26300 nM (inactive)
[3]
  GI50: 512 nM (active)
[4]
  GI50: 2120 nM (inactive)
[5]
  GI50: 15800 nM (inactive)
[6]
  GI50: < 10 nM (active)
[7]
  GI50: < 10 nM (active)
[8]
  GI50: < 10 nM (active)
[9]
  GI50: < 10 nM (active)
[10]
  GI50: 12800 nM (inactive)
[11]
  GI50: < 10 nM (active)
[12]
  GI50: < 10 nM (active)
[13]
  GI50: < 10 nM (active)
[14]
  GI50: < 10 nM (active)

## COc1cc(C2c3cc4c(cc3[C@@H](NCCN(C)C)C3COC(=O)[C@H]23)OCO4)cc(OC)c1O (stereo partly specified)
[15]
  GI50: 853 nM (active)
[16]
  GI50: 153 nM (active)
[1]
  GI50: 475 nM (active)
[17]
  GI50: 536 nM (active)
[18]
  GI50: 1980 nM (inactive)
[19]
  GI50: 210 nM (active)
[5]
  GI50: 120 nM (active)
[20]
  GI50: 229 nM (active)
[8]
  GI50: 455 nM (active)
[21]
  GI50: 149 nM (active)
[22]
  GI50: 37.5 nM (active)
[9]
  GI50: 253 nM (active)
[23]
  GI50: 86.9 nM (active)
[24]
  GI50: 1430 nM (inactive)
[25]
  GI50: 147 nM
[26]
  GI50: 284 nM (active)
[27]
  GI50: 1050 nM (active)
[28]
  GI50: 23.2 nM (active)
[12]
  GI50: 338 nM (active)
[29]
  GI50: 1060 nM (active)
[30]
  GI50: 35.9 nM (active)
[31]
  GI50: 575 nM (active)

— ChEMBL document CHEMBL1201862, “PubChem BioAssay data set” (2004)
